# Data published in publication PMC9965906, “Discovery and Development Strategies for SARS-CoV-2 NSP3 Macrodomain Inhibitors” (Pathogens, 2023).
# Values joined by “and” are separate entries in the source; they are usually repeats but may differ in a detail not shown here. Identical values can stand only once. Counter-ions that a name gives are not always drawn. Like-named read-outs stand apart in the source and are kept apart here.
# What was measured:
# [1] = test system: NSP3 Mac1; parameters: method as in PMID 35598780; settings: similar set-up using the peptide, AlphaScreen; cited from earlier work
# [2] = target: NSP3 Mac1; settings: recognition by NSP3 Mac1; cited from earlier work
# [3] = target: SARS-CoV-2 NSP3 Mac1 (Severe acute respiratory syndrome coronavirus 2, UniProt P0DTD1); assay: biochemical; assay type: binding; settings: for inhibition at 125 µM: read-out: Inhibition at top concentration of 125 µM (%); for inhibition at 187 µM: read-out: Inhibition at top screening concentration of 187 µM; for inhibition at 25 µM: BioAscent virtual screening hit compounds; for inhibitory activity in FDA-approved library screen: primary screen at the set screening concentration
# [4] = test system: MacroD1; settings: MacroD1, AlphaScreen-based assay format; cited from earlier work
# [5] = MIDAS hit compounds and analogues
# [6] = MIDAS hit compounds and analogues, top concentration 125 µM, 8-point 1:1 dilution, duplicate
# [7] = MIDAS hit compounds and analogues, top concentration 125 µM, 8-point 1:1 dilution, duplicate, read-out: IC50
# [8] = BioAscent hit compounds, confirmatory IC50 curves
# [9] = BioAscent hit compounds, top concentration 187 µM, 8-point 1:1 dilution, duplicate, read-out: IC50
# [10] = FDA-approved compound library primary screen, 50 µM, single shot
molecule,measurement,setting,value
Nc1ncnc2c1ncn2[C@@H]1O[C@H](COP(=O)(O)OP(=O)(O)OC[C@H]2OC(O)[C@H](O)[C@@H]2O)[C@@H](O)[C@H]1O (stereo partly drawn) [ADP-ribose],IC50,[1],1.5 µM
same,Kd,[2],13 µM
"Cn1ccc2c(-c3cncc(C(=O)N4CCCCC4)n3)ccnc21 [IAL-MD0137, O=C(C1=CN=CC(C2=C3C(N(C)C=C3)=NC=C2)=N1)N4CCCCC4]",inhibition at 125 µM,[3]; [5],25.8%
same,IC50 in µM,[3]; [6],Not measurable
"Cn1ccc2c(-c3ncccc3C(=O)N3CCCCC3)ccnc21 [IAL-MD0138, O=C(C1=CC=CN=C1C2=C3C(N(C)C=C3)=NC=C2)N4CCCCC4]",inhibition at 125 µM,[3]; [5],79.4%
same,IC50,[3]; [7],36 µM
"Cn1ccc2c(-c3cc(C(=O)N4CCCC4)ccn3)ccnc21 [IAL-MD0139, O=C(C1=CC(C2=C3C(N(C)C=C3)=NC=C2)=NC=C1)N4CCCC4]",inhibition at 125 µM,[3]; [5],21.7%
same,IC50 in µM,[3]; [6],Not measurable
"CN(C)C(=O)c1ccc(-c2ccnc3c2ccn3C)nc1 [IAL-MD0140, O=C(N(C)C)C1=CN=C(C2=C3C(N(C)C=C3)=NC=C2)C=C1]",Inhibition at top concentration of 125 µM (%),[3]; [5],Not measurable due to compound precipitation
same,IC50,[3]; [7],6.9 µM
"CN(C)C1CCN(C(=O)c2ccc(-c3ncnc4[nH]ccc34)cc2)C1 (stereo not drawn) [IAL-MD0141, O=C(N1CC(N(C)C)CC1)C2=CC=C(C3=C4C(NC=C4)=NC=N3)C=C2.O=CO]",inhibition at 125 µM,[3]; [5],81.3%
same,IC50,[3]; [7],25.2 µM
"Cn1ccc2c(-c3ccc(C(=O)N4CCCC4)cn3)ccnc21 [IAL-MD0142, O=C(C1=CN=C(C2=C3C(N(C)C=C3)=NC=C2)C=C1)N4CCCC4]",inhibition at 125 µM,[3]; [5],37.9%
same,IC50 in µM,[3]; [6],Not measurable
"CC(=O)N1CCN(C(=O)c2ccc(-c3ncnc4[nH]ccc34)cc2)CC1 [IAL-MD0143, O=C(C1=CC=C(C2=C3C(NC=C3)=NC=N2)C=C1)N4CCN(C(C)=O)CC4]",inhibition at 125 µM,[3]; [5],71.9%
same,IC50,[3]; [7],45 µM
"CCN(C)C(=O)c1ccc(-c2ccnc3c2ccn3C)nc1 [IAL-MD0144, O=C(N(CC)C)C1=CN=C(C2=C3C(N(C)C=C3)=NC=C2)C=C1]",inhibition at 125 µM,[3]; [5],23.8%
same,IC50 in µM,[3]; [6],Not measurable
"Cn1ccc2c(-c3ccc(Cn4ccnc4)cn3)ccnc21 [IAL-MD0145, CN1C=CC2=C(C3=NC=C(CN4C=CN=C4)C=C3)C=CN=C21]",inhibition at 125 µM,[3]; [5],81.1%
same,IC50,[3]; [7],14 µM
"CN1CCN(C(=O)c2cncc(-c3ccnc4c3ccn4C)n2)CC1 [IAL-MD0146, O=C(C1=CN=CC(C2=C3C(N(C)C=C3)=NC=C2)=N1)N4CCN(C)CC4]",inhibition at 125 µM,[3]; [5],3.7%
same,IC50 in µM,[3]; [6],Not measurable
"CCNC(=O)c1ccc(-c2ccnc3c2ccn3C)o1 [IAL-MD0147, O=C(NCC)C1=CC=C(C2=C3C(N(C)C=C3)=NC=C2)O1]",Inhibition at top concentration of 125 µM (%),[3]; [5],Not measurable due to compound precipitation
same,IC50,[3]; [7],6.8 µM
"CCCNC(=O)c1ccc(-c2ccnc3c2ccn3C)o1 [IAL-MD0148, O=C(NCCC)C1=CC=C(C2=C3C(N(C)C=C3)=NC=C2)O1]",Inhibition at top concentration of 125 µM (%),[3]; [5],Not measurable due to compound precipitation
same,IC50,[3]; [7],7.7 µM
"CC(=O)c1ccc(-c2ccc(N)cc2)s1 [IAL-MD0305, CC(=O)c1ccc(-c2ccc(N)cc2)s1]",inhibition at 187 µM,[3]; BioAscent hit compounds,63.1%
same,Hill slope,[3]; [8],0.6
same,IC50,[3]; [9],28 µM
same,inhibition at 25 µM,[3]; duplicate,56.2%
"COc1cc2c(cc1/C=C/C(=O)O)OC(C)C2 (stereo not drawn) [IAL-MD0306, COc1cc2c(cc1/C=C/C(=O)O)OC(C)C2]",inhibition at 187 µM,[3]; BioAscent hit compounds,81.3%
same,Hill slope,[3]; [8],0.8
same,IC50,[3]; [9],18 µM
same,inhibition at 25 µM,[3]; duplicate,63.7%
"C=C1c2cccc(O)c2C(=O)C2=C(O)[C@]3(O)C(=O)C(C(N)=O)=C(O)[C@@H](N(C)C)[C@@H]3[C@@H](O)[C@H]12 [Methacycline hydrochloride, reference compound]",NSP3 Mac1 inhibition at 50 µM (%),[3]; [10],87%
same,inhibition at 50 µM,[3]; [10],86.8%
same,outcome of dose-response titration,"[3]; FDA-approved hit compounds, top concentration 125 µM",strong assay interference
"O=C1c2c(O)ccc(O)c2C(=O)c2c(NCCNCCO)ccc(NCCNCCO)c21 [Mitoxantrone hydrochloride, reference compound]",IC50,"[3]; FDA-approved hit compounds re-supplied, top concentration 125 µM, read-out: IC50",14.1 µM and ~14 µM
"NC(=O)c1ccc[n+]([C@@H]2O[C@H](COP(=O)([O-])OP(=O)(O)OC[C@H]3O[C@@H](n4cnc5c(N)ncnc54)[C@H](O)[C@@H]3O)[C@@H](O)[C@H]2O)c1 [Nadide, reference compound]",NSP3 Mac1 inhibition at 50 µM (%),[3]; [10],100%
same,inhibition at 50 µM,[3]; [10],99.9%
"CN1CCCN=C1/C=C/c1cccc(O)c1 [Oxantel pamoate, reference compound]",IC50,[3],11.7 µM and 12 µM
same,NSP3 Mac1 inhibition at 50 µM (%),[3]; [10],56%
same,inhibition at 50 µM,[3]; [10],55.9%
same,Hill slope,"[3]; FDA-approved hit compounds, confirmatory HTRF assays",1.34
"CC(=O)[O][Hg][c]1ccccc1 [Phenylmercuric acetate, reference compound]",NSP3 Mac1 inhibition at 50 µM (%),[3],58.1%
"C=CC1=C(C)c2cc3[nH]c(cc4nc(cc5[nH]c(cc1n2)c(C)c5CCC(=O)O)C(CCC(=O)O)=C4C)c(C)c3C=C [Protoporphyrin IX, reference compound]",inhibition at 50 µM,[3]; [10],75%
"O=C(O)c1cc(O)c2c(c1)[C@H]([C@H]1c3cc(C(=O)O)cc(O)c3C(=O)c3c(O[C@@H]4O[C@H](CO)[C@@H](O)[C@H](O)[C@H]4O)cccc31)c1cccc(O[C@@H]3O[C@H](CO)[C@@H](O)[C@H](O)[C@H]3O)c1C2=O [Sennoside A, reference compound]",NSP3 Mac1 inhibition at 50 µM (%),[3]; [10],112%
same,inhibition at 50 µM,[3]; [10],112%
"Nc1ccc(S(=O)(=O)[O-])cc1.Nc1ccc(S(=O)(=O)[O-])cc1.O.O.O.O.[Zn+2] [Sulfanilate zinc, reference compound]",NSP3 Mac1 inhibition at 50 µM (%),[3]; [10],44.2%
"Cc1ccc(C(=O)Nc2ccc(S(=O)(=O)O)c3cc(S(=O)(=O)O)cc(S(=O)(=O)O)c23)cc1NC(=O)c1cccc(NC(=O)Nc2cccc(C(=O)Nc3cc(C(=O)Nc4ccc(S(=O)(=O)O)c5cc(S(=O)(=O)O)cc(S(=O)(=O)O)c45)ccc3C)c2)c1 [Suramin hexasodium, reference compound]",inhibition at 50 µM,[3]; [10],55.8%
same,inhibitory activity in FDA-approved library screen,[3],confirm the inhibitory activity
"C[CH2][Hg][S]c1ccccc1C(=O)[O-].[Na+] [Thimerosal, reference compound]",IC50,[4],5.2 µM
"C=CCCCCCCCCC(=O)[O-].C=CCCCCCCCCC(=O)[O-].[Zn+2] [Zinc undecylenate, reference compound]",NSP3 Mac1 inhibition at 50 µM (%),[3]; [10],68.0%
"Nc1ncnc2[nH]cnc12 [adenine, reference compound]",inhibitory activity in FDA-approved library screen,[3],did not show any inhibitory activity
"N[C@@H](C(=O)N[C@@H]1C(=O)N2C(C(=O)O)=C(Cl)CS[C@H]12)c1ccccc1 [cefaclor, reference compound]",inhibitory activity in FDA-approved library screen,[3],could yet not measure any inhibitory activity
"NNc1nncc2ccccc12 [hydralazine, reference compound]",inhibitory activity in FDA-approved library screen,[3],no NSP3 Mac1 inhibition
"O=C(O)CCc1nc(-c2ccccc2)c(-c2ccccc2)o1 [oxaprozin, reference compound]",inhibitory activity in FDA-approved library screen,[3],could not be identified in our screen
"COCCCOc1ccnc(C[S+]([O-])c2nc3ccccc3[nH]2)c1C (stereo not drawn) [rabeprazole, reference compound]",inhibitory activity in FDA-approved library screen,[3],could yet not measure any inhibitory activity
"CCCc1nc2c(C)cc(-c3nc4ccccc4n3C)cc2n1Cc1ccc(-c2ccccc2C(=O)O)cc1 [telmisartan, reference compound]",inhibitory activity in FDA-approved library screen,[3],could yet not measure any inhibitory activity
Candicidin [reference compound],NSP3 Mac1 inhibition at 50 µM (%),[3]; [10],50.1%
same,NSP3 Mac1 inhibition at 50 µM (%),"[3]; FDA-approved compound library primary screen, 50 µM, single shot, listed as candicidin",50%
Chlorophyllide Cu complex Na salt [reference compound],NSP3 Mac1 inhibition at 50 µM (%),[3]; [10],106.7%
same,NSP3 Mac1 inhibition at 50 µM (%),"[3]; FDA-approved compound library primary screen, 50 µM, single shot, listed as chlorophyllide–copper complex",106%
